{
  "source": "paper PMC11879040",
  "about": "“Advancing systemic toxicity risk assessment: Evaluation of a NAM-based toolbox approach” (Toxicological Sciences, 2024)",
  "key": {"CYP2B6": {"tested_on": "CYP2B6", "details": "PBK level L3, Intrinsic Liver Clearance, ref [12], cited from earlier work"}, "[1]": {"details": "ref [15-18]; cited from earlier work"}, "human": {"tested_on": "human", "details": "human studies; ref [15-18]; cited from earlier work"}, "[2]": {"biological_target": "T1, Constitutive androstane receptor CAR, NR1I3 (h) (Homo sapiens, UniProt Q14994)", "T1 sequence (Q14994 1-352)": "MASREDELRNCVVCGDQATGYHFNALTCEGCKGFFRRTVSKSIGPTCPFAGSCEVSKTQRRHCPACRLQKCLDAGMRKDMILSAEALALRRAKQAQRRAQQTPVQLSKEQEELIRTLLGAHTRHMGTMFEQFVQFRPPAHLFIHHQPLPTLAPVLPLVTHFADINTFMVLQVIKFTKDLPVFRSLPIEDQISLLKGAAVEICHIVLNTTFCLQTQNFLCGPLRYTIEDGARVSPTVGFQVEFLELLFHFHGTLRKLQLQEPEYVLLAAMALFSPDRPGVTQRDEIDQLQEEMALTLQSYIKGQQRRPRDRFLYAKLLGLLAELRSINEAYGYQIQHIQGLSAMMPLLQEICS", "format": "biochemical"}, "[3]": {"details": "at the given pH, single value or median, cited from earlier work"}, "CYP2C19": {"tested_on": "CYP2C19", "details": "PBK level L3, Intrinsic Liver Clearance, ref [12], cited from earlier work"}, "[4]": {"details": "PBK level L2; taken or scaled from references (median where several); ref [6],[7],[10],[19]; cited from earlier work"}, "[5]": {"biological_target": "Androgen receptor, AR (h) (Homo sapiens, UniProt P10275)", "sequence (P10275 whole entry)": "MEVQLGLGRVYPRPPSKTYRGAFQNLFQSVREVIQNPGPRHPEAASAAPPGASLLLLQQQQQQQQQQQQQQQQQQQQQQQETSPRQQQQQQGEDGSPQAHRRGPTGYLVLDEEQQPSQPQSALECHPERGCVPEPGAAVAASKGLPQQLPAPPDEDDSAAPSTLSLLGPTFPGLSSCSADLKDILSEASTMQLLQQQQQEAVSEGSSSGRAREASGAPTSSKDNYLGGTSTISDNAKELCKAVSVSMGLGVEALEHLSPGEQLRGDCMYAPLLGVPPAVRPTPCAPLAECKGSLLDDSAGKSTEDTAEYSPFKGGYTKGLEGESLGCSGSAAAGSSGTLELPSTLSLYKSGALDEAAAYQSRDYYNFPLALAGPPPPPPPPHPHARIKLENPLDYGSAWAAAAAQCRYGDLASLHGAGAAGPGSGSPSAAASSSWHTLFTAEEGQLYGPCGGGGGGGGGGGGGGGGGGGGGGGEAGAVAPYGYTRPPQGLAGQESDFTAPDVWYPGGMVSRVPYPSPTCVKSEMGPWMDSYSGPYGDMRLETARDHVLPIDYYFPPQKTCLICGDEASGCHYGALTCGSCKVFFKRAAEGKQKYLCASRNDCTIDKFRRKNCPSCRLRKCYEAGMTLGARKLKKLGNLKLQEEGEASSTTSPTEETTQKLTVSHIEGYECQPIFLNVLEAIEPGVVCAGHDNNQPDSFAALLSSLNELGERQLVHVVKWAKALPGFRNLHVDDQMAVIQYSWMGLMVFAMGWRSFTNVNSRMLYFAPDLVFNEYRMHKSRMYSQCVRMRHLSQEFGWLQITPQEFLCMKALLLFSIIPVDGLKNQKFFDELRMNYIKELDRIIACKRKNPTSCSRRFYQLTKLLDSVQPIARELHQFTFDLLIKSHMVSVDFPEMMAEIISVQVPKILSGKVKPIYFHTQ", "details": "IPP screening at 10 uM; control testosterone"}, "[6]": {"biological_target": "T2, Retinoic Acid Receptor gamma, RARG (h) (Homo sapiens, UniProt P13631)", "T2 construct": "purchased Eurofins Cerep (SafetyScreen44-based IPP panel)", "T2 sequence (P13631 whole entry)": "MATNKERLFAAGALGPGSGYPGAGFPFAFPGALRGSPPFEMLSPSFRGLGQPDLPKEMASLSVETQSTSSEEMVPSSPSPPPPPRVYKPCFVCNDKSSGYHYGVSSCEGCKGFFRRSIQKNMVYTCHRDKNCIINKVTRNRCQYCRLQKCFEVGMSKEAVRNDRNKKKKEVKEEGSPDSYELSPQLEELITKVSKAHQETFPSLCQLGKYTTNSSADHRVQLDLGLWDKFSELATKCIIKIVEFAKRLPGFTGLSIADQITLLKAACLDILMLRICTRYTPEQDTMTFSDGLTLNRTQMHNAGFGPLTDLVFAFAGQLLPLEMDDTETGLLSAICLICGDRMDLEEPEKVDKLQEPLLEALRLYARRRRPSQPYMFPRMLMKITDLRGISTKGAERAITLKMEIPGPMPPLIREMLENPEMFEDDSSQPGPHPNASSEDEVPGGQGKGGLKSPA", "test": "IPP RARG binding (assay unavailable by end of study)", "details": "10 uM; ligand/control 9-cis-Retinoic acid; ** assay was unavailable by the end of the study"}, "[7]": {"test": "hepatic intrinsic clearance (Clint)", "details": "PBK input"}, "[8]": {"test": "PBK model plasma Cmax estimate (Gastroplus 9.8; levels L1, L2, L3)", "parameters": "species or system human", "details": "therapeutic uses"}, "[9]": {"biological_target": "T3, Estrogen receptor beta, ESR2 (h) (Homo sapiens, UniProt Q92731)", "T3 construct": "purchased Eurofins Cerep (SafetyScreen44-based IPP panel)", "T3 sequence (Q92731 whole entry)": "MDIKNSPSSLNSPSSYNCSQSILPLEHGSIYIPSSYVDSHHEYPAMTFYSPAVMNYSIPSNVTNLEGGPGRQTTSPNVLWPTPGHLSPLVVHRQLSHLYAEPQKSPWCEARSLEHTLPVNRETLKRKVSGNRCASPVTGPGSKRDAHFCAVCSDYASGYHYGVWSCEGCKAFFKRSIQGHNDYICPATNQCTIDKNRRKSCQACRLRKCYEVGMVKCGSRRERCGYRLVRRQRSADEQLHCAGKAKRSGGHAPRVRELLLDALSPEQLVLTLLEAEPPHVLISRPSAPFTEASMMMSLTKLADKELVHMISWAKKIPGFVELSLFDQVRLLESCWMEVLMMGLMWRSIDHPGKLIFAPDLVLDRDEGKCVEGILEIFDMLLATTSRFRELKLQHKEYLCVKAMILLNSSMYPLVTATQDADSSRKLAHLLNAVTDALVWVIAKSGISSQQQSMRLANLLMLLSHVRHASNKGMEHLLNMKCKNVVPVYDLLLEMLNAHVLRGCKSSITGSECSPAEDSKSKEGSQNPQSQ", "test": "IPP ESR2 coactivator recruitment (agonist)", "format": "biochemical", "details": "100 uM, estriol, * denotes assay interference (2-Amino-6-chloro-4-nitrophenol, HC Red 3)"}, "[10]": {"biological_target": "T3, Estrogen receptor beta, ESR2 (h)", "test": "IPP ESR2 coactivator recruitment (antagonist)", "format": "biochemical", "details": "100 uM, estriol, * denotes assay interference (2-Amino-6-chloro-4-nitrophenol, HC Red 3)"}, "[11]": {"test": "intestinal absorption (PBK input)", "format": "in vitro ADME", "details": "levels L2/L3, converted from [38]"}, "[12]": {"details": "PBK input, levels L2/L3; ref [4]; cited from earlier work"}, "[13]": {"biological_target": "T4, Peroxisome proliferator-activated receptor gamma, PPARG (h) (Homo sapiens, UniProt P37231)", "T4 sequence (P37231 1-505)": "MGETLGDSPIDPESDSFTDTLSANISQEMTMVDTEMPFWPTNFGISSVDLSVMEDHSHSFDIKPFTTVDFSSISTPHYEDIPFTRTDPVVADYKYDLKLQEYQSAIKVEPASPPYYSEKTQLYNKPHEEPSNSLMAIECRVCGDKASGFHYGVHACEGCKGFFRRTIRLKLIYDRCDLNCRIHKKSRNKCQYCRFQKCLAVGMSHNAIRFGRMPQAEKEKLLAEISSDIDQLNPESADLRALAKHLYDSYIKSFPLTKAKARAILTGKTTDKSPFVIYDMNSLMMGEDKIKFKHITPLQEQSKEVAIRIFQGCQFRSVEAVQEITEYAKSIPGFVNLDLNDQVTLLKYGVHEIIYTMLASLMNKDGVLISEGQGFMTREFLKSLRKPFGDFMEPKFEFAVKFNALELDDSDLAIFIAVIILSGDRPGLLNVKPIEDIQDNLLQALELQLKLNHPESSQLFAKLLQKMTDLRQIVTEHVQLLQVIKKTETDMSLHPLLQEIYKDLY", "test": "IPP PPARG coactivator recruitment (antagonist)", "format": "biochemical", "details": "10 uM, ligand rosiglitazone"}, "[14]": {"biological_target": "T5, Peroxisome proliferator-activated receptor alpha, PPARA (h) (Homo sapiens, UniProt Q07869)", "T5 sequence (Q07869 1-468)": "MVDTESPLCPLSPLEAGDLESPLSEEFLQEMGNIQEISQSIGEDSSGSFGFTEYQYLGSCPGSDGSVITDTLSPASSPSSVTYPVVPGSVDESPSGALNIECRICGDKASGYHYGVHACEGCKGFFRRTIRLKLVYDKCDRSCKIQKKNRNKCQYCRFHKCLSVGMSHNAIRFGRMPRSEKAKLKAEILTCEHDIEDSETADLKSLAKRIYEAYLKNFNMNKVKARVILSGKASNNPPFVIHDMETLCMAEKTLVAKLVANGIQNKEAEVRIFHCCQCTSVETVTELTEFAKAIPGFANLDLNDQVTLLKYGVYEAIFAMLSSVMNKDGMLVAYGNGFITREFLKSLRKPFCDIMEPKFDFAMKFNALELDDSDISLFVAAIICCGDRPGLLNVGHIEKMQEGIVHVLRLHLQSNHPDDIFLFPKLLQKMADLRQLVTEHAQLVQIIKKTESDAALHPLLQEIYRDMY", "test": "IPP PPARA coactivator recruitment (antagonist)", "format": "biochemical", "details": "10 uM; antagonist; ligand GW 7647"}, "[15]": {"biological_target": "T6, Vitamin D3 receptor, VDR (h) (Homo sapiens, UniProt P11473)", "T6 sequence (P11473 whole entry)": "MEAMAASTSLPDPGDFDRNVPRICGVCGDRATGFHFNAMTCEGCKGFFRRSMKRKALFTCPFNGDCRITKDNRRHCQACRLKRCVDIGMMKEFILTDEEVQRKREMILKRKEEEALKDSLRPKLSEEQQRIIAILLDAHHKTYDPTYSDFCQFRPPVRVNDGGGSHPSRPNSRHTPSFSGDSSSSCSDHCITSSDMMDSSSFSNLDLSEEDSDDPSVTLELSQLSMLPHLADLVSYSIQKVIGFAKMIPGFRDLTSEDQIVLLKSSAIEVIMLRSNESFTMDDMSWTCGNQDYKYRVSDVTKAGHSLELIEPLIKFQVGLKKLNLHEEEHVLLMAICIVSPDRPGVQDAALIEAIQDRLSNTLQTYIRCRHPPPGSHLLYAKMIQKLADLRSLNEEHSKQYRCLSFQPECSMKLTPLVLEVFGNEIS", "format": "biochemical", "details": "10 uM; antagonist; ligand calcitriol"}, "[16]": {"biological_target": "T6, Vitamin D3 receptor, VDR (h)", "format": "biochemical", "details": "10 uM; agonist; calcitriol for control"}},
  "note": "Where two headings read alike, the source gives them in different places.",
  "data": [
    {"compound": "CCOP(=S)(OCC)Oc1nc(Cl)c(Cl)cc1Cl", "note": "[Chlorpyrifos, O,O-Diethyl O-(3,5,6-trichloropyridin-2-yl) phosphorothioate]", "values": [
      {"measurement": "Vmax CYP2B6 (CPFO)", "setting": "CYP2B6", "value": 418, "unit": "uL/min/nmol CYP"},
      {"measurement": "Km", "setting": "CYP2B6; read-out: km CYP2B6 (CPFO)", "value": 0.12, "unit": "µM"},
      {"measurement": "oral reference dose", "setting": "[1]", "value": 0.01, "unit": "mg/kg bw/day"},
      {"measurement": "NOAEL", "setting": "human", "value": 0.1, "unit": "mg/kg bw/day"},
      {"measurement": "IPP screening %, Coactivator recruitment", "setting": "[2]", "value": -5.1, "unit": "%"},
      {"measurement": "Aqueous Solubility", "setting": "[3]; PBK level L2, ref [1],[4],[5],[10],[11],[17],[26]", "value": 1.26, "unit": "µg/mL"},
      {"measurement": "Aqueous Solubility", "setting": "[3]; PBK level L3, ref [4],[5],[10],[11]", "value": 1.26, "unit": "µg/mL"},
      {"measurement": "Vmax CYP2C19 (TCP)", "setting": "CYP2C19", "value": 2296, "unit": "uL/min/mol CYP"},
      {"measurement": "Km", "setting": "CYP2C19; read-out: km CYP2C19 (TCP)", "value": 1.09, "unit": "µM"},
      {"measurement": "Intrinsic Liver Clearance", "setting": "[4]", "value": 131.95, "unit": "L/h"},
      {"measurement": "Specific binding", "setting": "[5]", "value": 5.8, "unit": "%"}
    ]},
    {"compound": "CC(C)(C)c1ccc(CCOc2ncnc3ccccc23)cc1", "note": "[Fenazaquin, 4-[2-(4-tert-Butylphenyl)ethoxy]quinazoline]", "values": [
      {"measurement": "IPP screening %, Specific binding", "setting": "[6]", "value": 35.0, "unit": "%"}
    ]},
    {"compound": "CC1(C)O[C@@H]2[C@@H](CO[C@@]3(COS(N)(=O)=O)OC(C)(C)O[C@@H]23)O1", "note": "[Topiramate, [(3aS,5aR,8aR,8bS)-2,2,7,7-Tetramethyltetrahydro-2H,3aH,7H-bis[1,3]dioxolo[4,5-b:4',5'-d]pyran-3a-yl]methyl sulfamate (non-preferred name)]", "values": [
      {"measurement": "Intrinsic Liver Clearance", "setting": "[7]; level L2, scaled from [6] internal data (unpublished)", "value": 15.02, "unit": "L/h"},
      {"measurement": "Intrinsic Liver Clearance", "setting": "[7]; level L3, optimised based on [39]", "value": 0.874, "unit": "L/h"},
      {"measurement": "underprediction of the L3 result at L2 (Cmax)", "setting": "[8]", "value": "≥ 5", "unit": "fold"},
      {"measurement": "IPP screening %, Coactivator recruitment", "setting": "[9]", "value": -2.0, "unit": "%"},
      {"measurement": "IPP screening %, Coactivator recruitment", "setting": "[10]", "value": -10.0, "unit": "%"},
      {"measurement": "Peff", "setting": "[11]", "value": 3.75, "unit": "cm/s x E-04"},
      {"measurement": "Fup", "setting": "[12]", "value": 79.5, "unit": "%"}
    ]},
    {"compound": "(4S,4aR,5S,5aR,6S,12aS)-4-(Dimethylamino)-3,5,6,10,12,12a-hexahydroxy-6-methyl-1,11-dioxo-1,4,4a,5,5a,6,11,12a-octahydrotetracene-2-carboxamide--hydrogen chloride (1/1) [Oxytetracycline hydrochloride]", "values": [
      {"measurement": "IPP screening %, Coactivator recruitment", "setting": "[13]", "value": 31.2, "unit": "%"},
      {"measurement": "IPP screening %, Coactivator recruitment", "setting": "[14]", "value": 42.3, "unit": "%"}
    ]},
    {"compound": "mixture of 2- and 3-tert-butyl-4-methoxyphenol [Butylated Hydroxyanisole]", "values": [
      {"measurement": "IPP screening %, Coactivator recruitment", "setting": "[13]", "value": 1.4, "unit": "%"},
      {"measurement": "IPP screening %, Coactivator recruitment", "setting": "[15]", "value": 3.0, "unit": "%"},
      {"measurement": "IPP screening %, Coactivator recruitment", "setting": "[16]", "value": -0.1, "unit": "%"},
      {"measurement": "IPP screening %, Coactivator recruitment", "setting": "[14]", "value": 4.4, "unit": "%"}
    ]}
  ]
}
